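Method: 48-hour compound exposure of cells in 96-well plates, five concentrations, linear interpolation of endpoints. The concentration for 50% growth inhibition is given as GI50. TGI denotes the concentration required for complete inhibition of growth.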
Experiments:
Experiment in all cases: NCI tumour cell line growth inhibition, 48 h
HCT-15 colon = tested on: HCT-15 colon
MOLT-4 leukemia = tested on: MOLT-4 leukemia
NCI-H460 lung = tested on: NCI-H460 lung
OVCAR-5 ovarian = tested on: OVCAR-5 ovarian
SK-MEL-2 melanoma = tested on: SK-MEL-2 melanoma
SK-OV-3 ovarian = tested on: SK-OV-3 ovarian
SN12C renal = tested on: SN12C renal
SNB-19 CNS = tested on: SNB-19 CNS
SNB-75 CNS = tested on: SNB-75 CNS
RPMI-8226 leukemia = tested on: RPMI-8226 leukemia

| Structure (SMILES) | TGI (HCT-15 colon) | TGI (MOLT-4 leukemia) | TGI (NCI-H460 lung) | TGI (OVCAR-5 ovarian) | TGI (SK-MEL-2 melanoma) | TGI (SK-OV-3 ovarian) | TGI (SN12C renal) | TGI (SNB-19 CNS) | TGI (SNB-75 CNS) | TGI (RPMI-8226 leukemia) | GI50 (HCT-15 colon) | GI50 (MOLT-4 leukemia) | GI50 (NCI-H460 lung) | GI50 (OVCAR-5 ovarian) | GI50 (RPMI-8226 leukemia) | GI50 (SK-OV-3 ovarian) | GI50 (SN12C renal) | GI50 (SNB-19 CNS) | GI50 (SNB-75 CNS) | GI50 (SK-MEL-2 melanoma) |
| --- | --- | --- | --- | --- | --- | --- | --- | --- | --- | --- | --- | --- | --- | --- | --- | --- | --- | --- | --- | --- |
| Cc1cccc2c1C(=O)OC2(c1cccc2ccccc12)c1cccc2ccccc12 | > 100 µM | > 100 µM | > 100 µM | > 100 µM | > 100 µM | > 100 µM | > 100 µM | > 100 µM | > 100 µM | – | – | – | – | – | – | – | – | – | – | – |
| C=C(C)[C@@H]1CC[C@@H]2C(=CC[C@]3(C)C([C@H](C)CC/C=C(/C)C(=O)O)CC[C@@]23C)[C@@]1(C)CCC(=O)O (stereo partly specified) | 44.4 µM | – | 40.6 µM | > 100 µM | 45.1 µM | > 100 µM | > 100 µM | > 100 µM | > 100 µM | 58.2 µM | – | – | – | – | – | – | – | – | – | – |
| O=C1/C(=C/c2ccccc2)CN(C(=O)Oc2ccccc2)C/C1=C\c1ccccc1 | > 100 µM | – | > 100 µM | > 100 µM | 65.5 µM | – | > 100 µM | 40.9 µM | 17.5 µM | 0.819 µM | – | – | – | – | – | – | – | – | – | – |
| CCc1cc2c(c3[nH]ccc13)[C@@H](C)C[C@H]2C | 30.9 µM | 38.2 µM | 29.4 µM | – | – | 54.9 µM | 29.8 µM | – | 38 µM | 46 µM | – | – | – | – | – | – | – | – | – | – |
| CC(=O)[O-].CC(=O)[O-].CC(=O)[O-].CC(=O)[O-].CO.CO.CO.[Rh+2].[Rh+2].c1ccc(-c2ccccn2)nc1 | > 100 µM | > 100 µM | > 100 µM | > 100 µM | – | > 100 µM | > 100 µM | > 100 µM | > 100 µM | > 100 µM | > 100 µM | > 100 µM | > 100 µM | > 100 µM | > 100 µM | > 100 µM | > 100 µM | > 100 µM | > 100 µM | – |
| CC(C)S(=O)(=O)ON1C(=O)c2ccc([N+](=O)[O-])cc2C1=O | > 100 µM | – | > 100 µM | > 100 µM | > 100 µM | > 100 µM | > 100 µM | > 100 µM | > 100 µM | – | – | – | – | – | – | – | – | – | – | – |
| COC(=O)C([O][Ge]([CH3])([CH3])[CH3])c1ccccc1 (stereo unspecified) | > 100 µM | > 100 µM | > 100 µM | > 100 µM | – | > 100 µM | > 100 µM | > 100 µM | > 100 µM | – | > 100 µM | > 100 µM | > 100 µM | > 100 µM | – | > 100 µM | > 100 µM | > 100 µM | > 100 µM | – |
| Cc1cccc(Cc2cnc(NC(=O)/C=C/c3ccco3)s2)c1 | > 100 µM | > 100 µM | > 100 µM | > 100 µM | > 100 µM | > 100 µM | > 100 µM | > 100 µM | – | > 100 µM | 0.0427 µM | 0.0561 µM | 0.0359 µM | 0.208 µM | 0.0403 µM | 0.0465 µM | 0.073 µM | 0.0488 µM | – | 0.0737 µM |
| CCCN(CCC)c1c([N+](=O)[O-])cc(C(N)=O)cc1[N+](=O)[O-] | > 100 µM | > 100 µM | > 100 µM | > 100 µM | > 100 µM | > 100 µM | > 100 µM | – | > 100 µM | > 100 µM | – | – | – | – | – | – | – | – | – | – |
| CC1(C)CC(=O)C=C(NC(=O)c2ccccc2)C1 | > 100 µM | > 100 µM | > 100 µM | – | > 100 µM | > 100 µM | > 100 µM | > 100 µM | > 100 µM | > 100 µM | – | – | – | – | – | – | – | – | – | – |
